# Experimental data as given in paper PMC12313019, “Fibrotic lung ECM upregulates SDC4/integrin-αvβ1 interaction and the interfering peptide SDC4_87-131 and its derivative peptides alleviate pulmonary fibrosis” (Regenerative Biomaterials, 2025).
# “Also recorded” adds a separate entry of the source.
# How the values were obtained:
# fibroblast = assay: CCK-8 fibroblast viability/toxicity; assay type: cell-based, mouse; conditions: CCK-8, 48 h, 10–1000 nM
# Description: (§1) Decellularized lung ECM (dECM) was prepared as described in previous study. 2 × 10^5 cells/mL NIH3T3 cells (mouse […], purchased from the Stem Cell Bank of the Chinese Academy of Sciences, Shanghai, China) were seeded on the dECM slices attached to the bottom of the culture dish and cultured in DMEM medium containing 0.5% fetal bovine serum (Gibco, Waltham, MA, USA) at 37°C and 5% CO2.
# (A) Schematic diagram of SDC487-131; (B) Effect of SDC487-131 and GRGDNP on fibroblast proliferation at 48 h was determined by CCK-8 method (n=3); (C) Effect of different concentration of SDC487-131 on fibroblast activation induced by d-PF for 48 h (n=5). Note: **p < 0.01 vs. PBS in d-Nor group; #p < 0.05 vs. PBS in d-PF group. d-Nor: dECM-Nor; d-PF: dECM-PF.
# Figure S14. The viability of fibroblast after treated with peptides for 48 h was detected by CCK-8 assay.
# NIH3T3 cells = assay: RT-PCR of fibroblast activation markers, TGF-β1 and inflammatory factors in dECM-stimulated fibroblast; assay type: cell-based, mouse
# Description: as §1
# (§2) Total RNA was extracted from cells or lung tissue (10 mg) using Trizol reagent, and mRNA was reverse transcribed into cDNA using HiScript® II QRT SuperMix for qPCR (Vazyme, #R223-01). Real-time fluorescence quantitative PCR (RT-PCR) was performed using Hieff® qPCR SYB Green Master Mix (YEASEN, #11201ES08) to obtain the Ct value. The 2^−ΔΔCt method was used to obtain the relative expression level of mRNA in each group. Primers (Table 1) were purchased from Sangon Biotech.
# pan-integrins = assay: FN-coating cell adhesion assay (pan-integrins activation); assay type: cell-based, mouse; conditions: 100 nM, n=5
# Description: 10 μg/mL Fibronectin (Merck, #10838039001) was dissolved in serum-free DMEM medium and dropped into a 96-well plate, 50 μL per well. The plate was incubated at 4 °C overnight. After blocking with 3% bovine serum albumin at room temperature for 30 min, 4×10^4 cells were inoculated into each well. After incubation for 30 min, the cells were washed, fixed, and stained with crystal violet (5 mg/mL) for 30 min. Then after the crystal violet was dissolved, it was detected using an ELISA reader at 595 nm.
# integrin-β1 = assay: Flow cytometry of integrin-β1 activation (9EG7) in fibroblast; assay type: cell-based, mouse; conditions: SDC4_87-131 100 nM, C8 20 nM, 48 h
# Description: as §1
# The single cell suspension of mouse lung tissue was obtained by grinding. After the remaining red blood cells were lysed with ACK Lysis Buffer (TBD, NH4CL2009), 1×10^6 cells/100 μL of cells were added with Fixable Viability Stain 780 (BD, #565388). After incubation at room temperature in the dark for 10-15 min, the suspension was washed twice with PBS containing 1%-2% FBS. The FCR antibody TruStain FcX™ PLUS (BD, #156603) was added to the cell suspension at a ratio of 0.25 μL:100 μL and blocked on ice for 10 min. Then, the antibody was incubated at an appropriate concentration and time according to the manufacturer's instructions. Antibodies include CD45 (Biolegend, #157619), CD140a (Thermo Fisher, #25-1401-82), SDC-4 (Sino Biological, #50726-R112-P), SP-C (Bioss, #bs-10067R-FITC) and Integrin-β1 (9Eg7, BD, 553715), and AF647 anti-Rat (CST, #4418S) was used as the secondary antibody. After incubation, cells were washed and resuspended, and detected using LSRFortessaX-20 (BD).
# SDC4/integrin-αv [1] = assay: Duolink-PLA, SDC4/integrin-αv extracellular interaction in fibroblast; assay type: cell-based, mouse; conditions: SDC4_87-131 100 nM; with Anti-SDC4(93-121), n=5
# Description: as §1
# (§3) Cells or tissue slices were attached to slides, fixed and permeabilized and blocked with Duolink^TM (Merck, MO, USA) blocking buffer. Antibodies against the extracellular domain of SDC4 (5G9, mouse IgG, SCBT #sc-12766), integrin-αv (rabbit IgG, CST #4711) and integrin-β1 (rabbit IgG, CST #34971) were diluted and added to the samples and incubated overnight at 4°C. After washing, PLUS and MINUS (proximity ligation assay, PLA) probes were added to the samples and incubated at 37°C for 1 h. After washing, the samples were sequentially incubated with PLUS and MINUS (PLA) probes, ligation buffer and amplification buffer containing polymerase. Finally, the samples were mounted with in situ mounting medium containing DAPI. Images were acquired using a Leica SP5 confocal microscope (Leica Biosystems, Germany) and quantitative analysis was performed using ImageJ software.
# SDC4/integrin-αv [2] = assay: Duolink-PLA, SDC4/integrin-αv interaction in BLM lung tissue; assay type: in vivo, mouse; conditions: SDC4_87-131 1 mg/kg ITD q3d; C8 10 mg/kg IP qd; Anti-SDC4(93-121) 8 mg/kg ITD day 3 and 10; n=5
# Description: (§4) After the mice were anesthetized (1% sodium pentobarbital 50 mg/kg was injected intraperitoneally), 150 μL of bleomycin (BLM, 5 mg/mL, BIO-000001) was inhaled into the lungs of the mice by tracheal inhalation instillation. One day later, the mice were randomly divided into model and drug treatment groups, and the mice in the control group were only subjected to saline inhalation.
# as §3
# [3] = system: BLM-induced PF, C57BL/6J mice; assay: BLM-induced PF in mice: RT-PCR of lung tissue; assay type: in vivo, mouse; conditions: BLM lung tissue
# Description: as §4
# (§5) Based on the dosage of SDC2 fragment peptide and our experimental results (Supplementary Figure S10A and B), the dosage schedule of SDC4_87-131 was set as follows: starting on the third day after BLM inhalation, 1 mg/kg, administered via trachea infusion once every three days. And Anti-SDC4(93-121) 8 mg/kg was administered on the third and tenth days (reference dosage).
# as §2
# [4] = system: BLM-induced PF, C57BL/6J mice; assay: BLM-induced PF in mice: lung index and blood cell count; assay type: in vivo, mouse; conditions: n=6
# Description: as §4, §5
# At the termination of the experiment, the mice were euthanized and their lung tissues were taken after the eyeballs were removed and blood was collected. Within 2 hours after blood collection, the blood samples were tested on the URIT-2900VetPLUS automatic animal blood cell analyzer.
# BLM lung injury, mice = assay: BLM lung injury, subacute stage, HE staining; assay type: in vivo, mouse; conditions: 300 μg/kg, i.h., qd from 24 h after BLM, to day 15
# Description: as §4
# (A) Flow chart of animal experiments. SDC487-131 (300 μg/kg, i.h., qd) was administered starting 24 h after BLM modeling, and the experiment ended on the 15th day; (B) The pathological changes at the subacute stage of BLM lung injury were observed by HE staining (scale bar = 1000 μm, 50μm). […] To achieve better results, we used intratracheal instillation of SDC487-131 (1mg/kg, q3d).
substance,measurement,setting,value
Ac-NHIPERAGSGSQVPTEPKKLEENEVIPKRISPVEESEDVSNKVSM-NH2 [SDC4_87-131],toxicity to fibroblast,fibroblast,no significant toxicity to fibroblast
same,dECM-PF-induced fibroblast activation,"NIH3T3 cells; 100 nM, 48 h",significantly inhibit dECM-PF-induced fibroblast activation
same,dECM-PF-induced fibroblast activation and TGF-β1 synthesis,NIH3T3 cells; SDC4_87-131 100 nM vs Anti-SDC4(93-121) 100 ng/mL,inhibited dECM-PF-induced fibroblast activation and TGF-β1 synthesis
same,pan-integrins activation,pan-integrins,could inhibit pan-integrins activation
same,dECM-PF-induced integrin-β1 activation,integrin-β1,significantly inhibited dECM-PF-induced integrin-β1 activation
same,integrin-αv/SDC4 interaction induced by dECM-PF,SDC4/integrin-αv [1],significantly reduce
same,interaction of integrin-αv and SDC4 in BLM lung tissue,SDC4/integrin-αv [2],could reduce the interaction of integrin-αv and SDC4
same,"mRNA levels of α-SMA, FN, Col I, TGF-β1, IL-1β, IL-6 and TNF-α","[3]; 1 mg/kg ITD q3d, n=4–6",significantly reduced
same,IL-6 downregulation vs C8,[3]; n=4–5,stronger effect in downregulating IL-6 than C8
same,downregulating effect (blood leukocyte count) vs C8,[4]; Figure 5F,notably stronger than that of C8
same,lung index and blood leukocyte count,"[4]; SDC4_87-131, C8, Anti-SDC4(93-121) groups",could reduce the lung index and blood leukocyte count
same,"BLM lung injury, subacute stage","BLM lung injury, mice",can alleviate BLM lung injury in the subacute stage; also recorded: effective
